Source: PubChem BioAssay AID248 (DTP/NCI, 2004)
Several values for one entry are separate records, joined by “and”; a condition that tells them apart may be missing. Identical values can stand only once. Toxic doses and inconclusive results are not listed. Rule as the data show it: active = T/C of 150% or more; inactive = T/C below 125%.

Tested on: L1210 leukemia ip in BDF1 mice, survival T/C
Test: NCI In Vivo Anticancer Drug Screen. Data for tumor model L1210 Leukemia (intraperitoneal) in B6D2F1 (BDF1) mice
Settings: endpoint: mean survival time, higher = longer survival
Outline: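 Ratio derived from survival: compound-dosed mice over vehicle-dosed mice, all bearing a transplantable tumor.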

[1] = dose: 12.5 mg/kg/injection, schedule: Q01DX009 (ip), vehicle: saline
[2] = dose: 25.0 mg/kg/injection, schedule: Q01DX009 (ip), vehicle: saline
[3] = dose: 25.0 mg/kg/injection, schedule: Q04DX003 (ip), vehicle: saline
[4] = dose: 50.0 mg/kg/injection, schedule: Q04DX003 (ip), vehicle: saline
[5] = dose: 100.0 mg/kg/injection, schedule: Q04DX002 (ip), vehicle: Klucel (hydroxypropylcellulose) (HPC)
[6] = dose: 50.0 mg/kg/injection, schedule: Q01DX001 (ip), vehicle: saline
[7] = dose: 100.0 mg/kg/injection, schedule: Q01DX001 (ip), vehicle: saline
[8] = dose: 200.0 mg/kg/injection, schedule: Q01DX001 (ip), vehicle: saline
[9] = dose: 400.0 mg/kg/injection, schedule: Q01DX001 (ip), vehicle: saline
[10] = dose: 100.0 mg/kg/injection, schedule: Q01DX009 (ip), vehicle: saline
[11] = dose: 100.0 mg/kg/injection, schedule: Q01DX009 (ip), vehicle: saline with Tween-80
[12] = dose: 200.0 mg/kg/injection, schedule: Q01DX009 (ip), vehicle: saline with Tween-80
[13] = dose: 100.0 mg/kg/injection, schedule: Q04DX003 (ip), vehicle: saline with Tween-80
[14] = dose: 200.0 mg/kg/injection, schedule: Q04DX003 (ip), vehicle: saline with Tween-80
[15] = dose: 400.0 mg/kg/injection, schedule: Q04DX003 (ip), vehicle: saline with Tween-80
[16] = dose: 400.0 mg/kg/injection, schedule: Q01DX009 (ip), vehicle: saline with Tween-80
[17] = dose: 100.0 mg/kg/injection, schedule: Q04DX003 (ip), vehicle: saline
[18] = dose: 200.0 mg/kg/injection, schedule: Q04DX003 (ip), vehicle: saline
[19] = dose: 400.0 mg/kg/injection, schedule: Q04DX003 (ip), vehicle: saline

Measured: T/C

CC(C)(C)C#C[P+](C#CC(C)(C)C)(Cc1ccccc1)c1ccccc1
inactive: [1] 99 % of control | dose: 12.5 mg/kg/injection, schedule: Q04DX003 (ip), vehicle: saline 98 % of control | [2] 94 % of control | [3] 106 % of control | [4] 117 % of control

C1=Nc2cc3c(cc2Cn2cccc21)OCO3
inactive: dose: 25.0 mg/kg/injection, schedule: Q04DX002 (ip), vehicle: Klucel (hydroxypropylcellulose) (HPC) 86 % of control | dose: 50.0 mg/kg/injection, schedule: Q04DX002 (ip), vehicle: Klucel (hydroxypropylcellulose) (HPC) 94 % of control | [5] 94 % of control

CSC(N)=NC1CCCCC1
inactive: dose: 6.25 mg/kg/injection, schedule: Q01DX009 (ip), vehicle: saline 103 % of control | [1] 107 % of control | dose: 12.5 mg/kg/injection, schedule: Q04DX002 (ip), vehicle: saline 109 % of control | [2] 100 % of control | dose: 25.0 mg/kg/injection, schedule: Q04DX002 (ip), vehicle: saline 105 % of control

COc1ccc(CN2CCCN(Cc3ccc(OC)cc3OC)C2c2ccccc2O)c(OC)c1
inactive: [6] 97 % of control | [7] 92 % of control | [8] 90 % of control | [9] 101 % of control

CCOP(=O)(OCC)Oc1ccc(S(C)=O)cc1 (stereo unspecified)
inactive: dose: 5.0 mg/kg/injection, schedule: Q01DX001 (ip), vehicle: saline 114 % of control

O=C(O)c1ccccc1SSc1ccccc1C(=O)O
inactive: dose: 50.0 mg/kg/injection, schedule: Q01DX001 (ip), vehicle: carboxymethylcellulose (CMC) 100 % of control | dose: 100.0 mg/kg/injection, schedule: Q01DX001 (ip), vehicle: carboxymethylcellulose (CMC) 100 % of control | dose: 200.0 mg/kg/injection, schedule: Q01DX001 (ip), vehicle: carboxymethylcellulose (CMC) 96 % of control | dose: 400.0 mg/kg/injection, schedule: Q01DX001 (ip), vehicle: carboxymethylcellulose (CMC) 103 % of control

CC1(C)N=C(N)N=C(N)N1c1ccc(C(=O)Nc2cccc(S(=O)(=O)F)c2)cc1
inactive: dose: 0.8 mg/kg/injection, schedule: Q01DX009 (ip), vehicle: saline 97 % of control | dose: 4.0 mg/kg/injection, schedule: Q01DX009 (ip), vehicle: saline 101 % of control | dose: 20.0 mg/kg/injection, schedule: Q01DX009 (ip), vehicle: saline 97 % of control | [10] 100 % of control | dose: 500.0 mg/kg/injection, schedule: Q01DX009 (ip), vehicle: saline 92 % of control

O=C(O)c1ccc(OCC(=O)c2ccccc2)cc1
inactive: [11] 98 % of control | [12] 89 % of control

OCCSc1ncnc2nc[nH]c12
inactive: [13] 104 % of control | [14] 98 % of control | [15] 104 % of control

COc1ccc(/C=N\NC(=O)OC(C)(C)C)c(OC)c1OC
inactive: dose: 100.0 mg/kg/injection, schedule: Q01DX009 (ip), vehicle: acetone 104 % of control | [13] 105 % of control | dose: 200.0 mg/kg/injection, schedule: Q01DX009 (ip), vehicle: acetone 94 % of control | [14] 112 % of control | dose: 400.0 mg/kg/injection, schedule: Q01DX009 (ip), vehicle: acetone 96 % of control | [15] 112 % of control

COc1ccc(C(=O)N(N)C2CCCCC2)cc1
inactive: [13] 93 % of control | [14] 102 % of control

COC1(OC)C2C=CC1C1C(=O)CC1C(=O)C2 (stereo unspecified)
inactive: dose: 75.0 mg/kg/injection, schedule: Q01DX009 (ip), vehicle: Klucel (hydroxypropylcellulose) (HPC) 108 % of control | dose: 100.0 mg/kg/injection, schedule: Q01DX001 (ip), vehicle: Klucel (hydroxypropylcellulose) (HPC) 100 % of control | dose: 150.0 mg/kg/injection, schedule: Q01DX009 (ip), vehicle: Klucel (hydroxypropylcellulose) (HPC) 113 % of control | dose: 200.0 mg/kg/injection, schedule: Q01DX001 (ip), vehicle: Klucel (hydroxypropylcellulose) (HPC) 103 % of control | dose: 300.0 mg/kg/injection, schedule: Q01DX009 (ip), vehicle: Klucel (hydroxypropylcellulose) (HPC) 105 % of control | dose: 400.0 mg/kg/injection, schedule: Q01DX001 (ip), vehicle: Klucel (hydroxypropylcellulose) (HPC) 90 % of control

CC(=O)NC(Cc1cnc[nH]1)C(=O)O (stereo unspecified)
inactive: [7] 97 % of control | [8] 98 % of control | [9] 97 % of control

COc1ccccc1OC(=S)N(C)C
inactive: [11] 102 % of control | [13] 103 % of control | [12] 100 % of control | [14] 122 % of control | [16] 93 % of control | [15] 105 % of control

CCOC(=O)c1cc2c3n(c1=O)CCCC3C(c1ccncc1)OC2=O (stereo unspecified)
inactive: dose: 75.0 mg/kg/injection, schedule: Q04DX003 (ip), vehicle: saline 95 % of control | dose: 150.0 mg/kg/injection, schedule: Q04DX003 (ip), vehicle: saline 100 % of control | dose: 300.0 mg/kg/injection, schedule: Q04DX003 (ip), vehicle: saline 95 % of control

CCOC(=O)Cn1ccc(=O)[nH]c1=O
inactive: [17] 98 % of control | [18] 96 % of control | [19] 102 % of control

O=S(=O)(CC(I)c1ccccc1)c1ccccc1 (stereo unspecified)
inactive: [17] 105 % of control | [18] 94 % of control | [19] 92 % of control

CCOC(=O)c1ccc(Nc2nnc(-c3ccc(OC)cc3OC)s2)cc1
inactive: dose: 100.0 mg/kg/injection, schedule: Q04DX002 (ip), vehicle: saline with Tween-80 104 % of control | dose: 200.0 mg/kg/injection, schedule: Q04DX002 (ip), vehicle: saline with Tween-80 104 % of control | dose: 400.0 mg/kg/injection, schedule: Q04DX002 (ip), vehicle: saline with Tween-80 101 % of control

CCN1CCCC(SC(=O)C(O)(c2ccccc2)c2ccccc2)C1 (stereo unspecified)
inactive: dose: 75.0 mg/kg/injection, schedule: Q01DX001 (ip), vehicle: other 94 % of control | dose: 150.0 mg/kg/injection, schedule: Q01DX001 (ip), vehicle: other 94 % of control | dose: 300.0 mg/kg/injection, schedule: Q01DX001 (ip), vehicle: other 88 % of control

O=C(O)C1C2OC(C(Cl)C2Cl)C1C(=O)O (stereo unspecified)
inactive: [5] 98 % of control | dose: 200.0 mg/kg/injection, schedule: Q04DX002 (ip), vehicle: Klucel (hydroxypropylcellulose) (HPC) 103 % of control | dose: 400.0 mg/kg/injection, schedule: Q04DX002 (ip), vehicle: Klucel (hydroxypropylcellulose) (HPC) 95 % of control

Cc1nc2c(=O)[nH]n(C)c2nc1C
inactive: [11] 97 % of control | [12] 95 % of control | [16] 95 % of control

Cc1ccc([N+](=O)[O-])cc1NC(=O)OCCOc1ccccc1
inactive: [10] 90 % of control | dose: 200.0 mg/kg/injection, schedule: Q01DX009 (ip), vehicle: saline 103 % of control | dose: 400.0 mg/kg/injection, schedule: Q01DX009 (ip), vehicle: saline 92 % of control

CCOC=N
inactive: [6] 95 % of control | [7] 95 % of control | [8] 97 % of control | [9] 101 % of control

CC(C1CCC/C(=N\NC(N)=O)C1)[N+](=O)[O-] (stereo unspecified)
inactive: dose: 25.0 mg/kg/injection, schedule: Q01DX009 (ip), vehicle: saline with Tween-80 95 % of control | dose: 50.0 mg/kg/injection, schedule: Q01DX009 (ip), vehicle: saline with Tween-80 104 % of control | [11] 89 % of control | [13] 90 % of control | [14] 98 % of control

C1CCN(CCC2CCNCC2)C1
inactive: [2] 106 % of control | [3] 97 % of control | dose: 50.0 mg/kg/injection, schedule: Q01DX009 (ip), vehicle: saline 95 % of control | [4] 97 % of control | [10] 106 % of control | [17] 96 % of control and 100 % of control

CCC(C(=O)O)N1C(=O)C2C3CCC(C3)C2C1=O (stereo unspecified)
inactive: [13] 98 % of control | [14] 103 % of control | [15] 103 % of control

CSc1nc(N)cc(NC(=O)CCl)n1
inactive: dose: 50.0 mg/kg/injection, schedule: Q01DX009 (ip), vehicle: Klucel (hydroxypropylcellulose) (HPC) 101 % of control | dose: 100.0 mg/kg/injection, schedule: Q01DX009 (ip), vehicle: Klucel (hydroxypropylcellulose) (HPC) 102 % of control | dose: 100.0 mg/kg/injection, schedule: Q04DX003 (ip), vehicle: Klucel (hydroxypropylcellulose) (HPC) 92 % of control | dose: 200.0 mg/kg/injection, schedule: Q04DX003 (ip), vehicle: Klucel (hydroxypropylcellulose) (HPC) 92 % of control
